Results on 3 molecules are retold here after US12692248B2, “Solid state forms of (S)-N-(3-(2-(((R)-1-hydroxypropan-2-yl)amino)-6-morpholinopyridin-4-yl)-4-methylphenyl)-3-(2,2,2-trifluoroethyl)pyrrolidine-1-carboxamide and salts thereof” (PIERRE FABRE MEDICAMENT, priority 2021, dated 2026).

Holding throughout (type): physicochemical
Data set [1] is described as follows: Dynamic Vapor Sorption (DVS). The settings on record: for water uptake at 80% RH: 80% relative humidity. The method, then: Dynamic Vapor Sorption (DVS) Moisture sorption/desorption data was collected on a DVS Intrinsic PLUS (SMS, UK). The sample was placed into a tared sample chamber and automatically weighed. The sample was dried at 40° C./0%0 RH until the dm/dt was less than 0.00200 and cooled to 25° C. [table]

Data set [2] is described as follows: Stability at 60° C. and 40° C. at 75% relative humidity for 9 days (UPLC purity, XRPD). The settings on record: for Purity −3 d: 3 days; for Purity −9 d: 9 days; for XRPD: crystal form check. The method, then:
Compound 1 and Compound 2 were evaluated for stability at 60° C. and 40° C. at 75% relative humidity for 9 days. At 0, 3, and 9 days, the samples were dissolved with diluent to prepare a solution for purity analysis by UPLC. Solid samples were also analyzed by XRPD to check the crystal form.

Data set [3] can be described thus: Solubility of Compound 1 in solvents. On the procedure:
Compound 1 is insoluble in n-heptane and water (<1 mg/mL) and soluble (>100 mg/mL) in methanol, ethanol, acetone, tetrahydrofuran, methyl ethyl ketone, ethyl acetate, acetonitrile, isobutanol, isopropyl alcohol and isopropyl acetate. Compound 1 has a solubility of about 60 mg/mL in methyl t-butyl ether.

Data set [4] is described as follows: Comparison dissolution trials in water and biorelevant media. The settings on record: for solubility at 0.5 h: read-out: Solubility (mg/mL) 0.5 h; for solubility at 2 h: read-out: Solubility (mg/mL) 2 h; for solubility at 24 h: read-out: Solubility (mg/mL) 24 h. The method, then: Comparison dissolution trials were performed on Compounds 1 and 2. About 20 mg of each sample was weighed into a sample vial and then 4 mL of media was added to make a suspension. All suspensions were shaken at 37° C. with a rate of 200 rpm. […] He pH of the filtrate was measured, and the filter cake was analyzed by XRPD. […] In biorelevant dissolution media FaSSIF and FeSSIF, the solubility of the Compound 1 and Compound 2 were similar.

A short description of data set [5]: Slurry experiments of amorphous hydrochloride. The note with it: one day, XRPD. The method, then:
An amorphous solid state form of (S)—N-(3-(2-(((R)-1-hydroxypropan-2-yl)amino)-6-morpholinopyridin-4-yl)-4-methylphenyl)-3-(2,2,2-trifluoroethyl)pyrrolidine-1-carboxamide hydrochloride is attainable. Amorphous (S)—N-(3-(2-(((R)-1-hydroxypropan-2-yl)amino)-6-morpholinopyridin-4-yl)-4-methylphenyl)-3-(2,2,2-trifluoroethyl)pyrrolidine-1-carboxamide hydrochloride was formed by rapid evaporation of 15 mg of Compound 2 dissolved in 0.5 mL of methanol. The solid was confirmed to be amorphous by XRPD. Slurry of amorphous (S)—N-(3-(2-(((R)-1-hydroxypropan-2-yl)amino)-6-morpholinopyridin-4-yl)-4-methylphenyl)-3-(2,2,2-trifluoroethyl)pyrrolidine-1-carboxamide hydrochloride in 0.5 mL of the solvents in Table 13 were prepared. Each suspension was stirred for one day at 50° C. and at RT. Each suspension was filtered and analyzed by XRPD. In each experiment, conversion from amorphous (S)—N-(3-(2-(((R)-1-hydroxypropan-2-yl)amino)-6-morpholinopyridin-4-yl)-4-methylphenyl)-3-(2,2,2-trifluoroethyl)pyrrolidine-1-carboxamide hydrochloride to crystalline Compound 2 was observed.

Where [6] appears, read: simulated gastric fluid, thermodynamic from solid, SGF, 37° C.
Where [7] appears, read: thermodynamic from solid, FaSSIF, 37° C.
The mark [8] stands for this setting: thermodynamic from solid, FeSSIF, 37° C.
Setting [9] is: thermodynamic from solid, Water, 37° C.

Values after ≈ are worked out from the molar mass of the structure shown. Where two headings read alike, the source gives them in different places.

Regarding `Cc1ccc(NC(=O)N2CC[C@@H](CC(F)(F)F)C2)cc1-c1cc(N[C@H](C)CO)nc(N2CCOCC2)c1` [Compound 1, (S)—N-(3-(2-(((R)-1-hydroxypropan-2-yl)amino)-6-morpholinopyridin-4-yl)-4-methylphenyl)-3-(2,2,2-trifluoroethyl)pyrrolidine-1-carboxamide], the hygroscopicity result in data set [1] (DVS) is “slightly hygroscopic”. For the same molecule, in data set [1] (DVS, 25° C.), the “water uptake at 80% RH” value is recorded as 2%. Besides, in data set [1] (after DVS testing), the “solid form after DVS testing” value is given as “remained amorphous”. Moreover, the “Purity −0 d (Area %)” value in data set [2] (0 days (initial), UPLC) is listed as 99.43 Area %. The “Purity −3 d” value worked out at 99.42 Area % in data set [2] (40° C./75% RH, UPLC) and 99.39 Area % in data set [2] (60° C., UPLC). Further, the “Purity −9 d” value in data set [2] (40° C./75% RH, UPLC) is recorded as 99.40 Area %; in data set [2] (60° C., UPLC) it was 99.42 Area %. Moreover, the XRPD entry in data set [2] (40° C./75% RH) and in data set [2] (60° C.) was “No change” throughout. Moreover, the solubility in data set [3] (acetone, organic solvent or mixture) is above 100000 µg/mL; in data set [3] (acetonitrile, organic solvent or mixture), above 100000 µg/mL; in data set [3] (ethanol, organic solvent or mixture), above 100000 µg/mL; in data set [3] (ethyl acetate, organic solvent or mixture), above 100000 µg/mL; in data set [3] (isobutanol, organic solvent or mixture), above 100000 µg/mL; in data set [3] (isopropyl acetate, organic solvent or mixture) it was above 100000 µg/mL. For the same molecule, the solubility was above 100000 µg/mL in data set [3] (isopropyl alcohol, organic solvent or mixture); above 100000 µg/mL in data set [3] (methanol, organic solvent or mixture); above 100000 µg/mL in data set [3] (methyl ethyl ketone, organic solvent or mixture); around 60000 µg/mL (≈ 115000 µM) in data set [3] (methyl t-butyl ether, organic solvent or mixture); below 1000 µg/mL in data set [3] (n-heptane, organic solvent or mixture); above 100000 µg/mL in data set [3] (tetrahydrofuran, organic solvent or mixture). The solubility is below 1000 µg/mL in data set [3] (water) and below 9 µg/mL in data set [4] (thermodynamic from solid, water, 37° C.). Besides, the solid form conversion result in data set [4] (FaSSGF, filter cake by XRPD) is recorded as “converted to Compound 2”. The “solubility of Compound 1 and Compound 2 compared” value in data set [4] (FaSSIF and FeSSIF) was “similar”. In addition, the “pH of the filtrate” value in data set [4] (Water medium) is listed as “(pH 6.4)”. Besides, the solubility at 0.5 h in data set [4] (setting [6]) was 0.48 mg/mL (≈ 920 µM); in data set [4] (setting [7]) it was 0.024 mg/mL (≈ 46 µM); in data set [4] (setting [8]), 0.15 mg/mL (≈ 288 µM); in data set [4] (setting [9]), 0.004 mg/mL (≈ 7.67 µM). Also, the solubility at 2 h in data set [4] (setting [6]) is 0.35 mg/mL (≈ 671 µM); in data set [4] (setting [7]), 0.022 mg/mL (≈ 42.2 µM); in data set [4] (setting [8]) it was 0.17 mg/mL (≈ 326 µM); in data set [4] (setting [9]) it was 0.004 mg/mL (≈ 7.67 µM). In addition, the solubility at 24 h was 0.83 mg/mL (≈ 1590 µM) in data set [4] (setting [6]), 0.018 mg/mL (≈ 34.5 µM) in data set [4] (setting [7]), 0.15 mg/mL (≈ 288 µM) in data set [4] (setting [8]) and 0.009 mg/mL (≈ 17.3 µM) in data set [4] (setting [9]).

As to `Br.Cc1ccc(NC(=O)N2CC[C@@H](CC(F)(F)F)C2)cc1-c1cc(N[C@H](C)CO)nc(N2CCOCC2)c1` [Compound 3, (S)—N-(3-(2-(((R)-1-hydroxypropan-2-yl)amino)-6-morpholinopyridin-4-yl)-4-methylphenyl)-3-(2,2,2-trifluoroethyl)pyrrolidine-1-carboxamide hydrobromide], in data set [1] (DVS), the hygroscopicity result was “slightly hydroscopic”. The “water uptake at 80% RH” value in data set [1] (DVS, 25° C.) amounted to 0.27%. For the same molecule, in data set [1] (DVS, 25° C., 90% relative humidity), the “water uptake at 90% relative humidity” value is on record as 0.45%.

With `Cc1ccc(NC(=O)N2CC[C@@H](CC(F)(F)F)C2)cc1-c1cc(N[C@H](C)CO)nc(N2CCOCC2)c1.Cl` [amorphous Compound 2, (S)—N-(3-(2-(((R)-1-hydroxypropan-2-yl)amino)-6-morpholinopyridin-4-yl)-4-methylphenyl)-3-(2,2,2-trifluoroethyl)pyrrolidine-1-carboxamide hydrochloride], the “Resulting Solid State Form” value in data set [5] (slurry in Acetone, 50° C.) is given as “Form I”; in data set [5] (slurry in Acetone, RT) it was “Form I”; in data set [5] (slurry in Ethanol, 50° C.) it was “Form I”; in data set [5] (slurry in Ethanol, RT) it was “Form I”; in data set [5] (slurry in Ethyl acetate, 50° C.), “Form I”; in data set [5] (slurry in Ethyl acetate, RT), “Form I”. Further, the “Resulting Solid State Form” value in data set [5] (slurry in Water, 50° C.) is reported as “Form I”; in data set [5] (slurry in Water, RT), “Form I”; in data set [5] (slurry in n-Heptane, 50° C.) it was “Form I”; in data set [5] (slurry in n-Heptane, RT) it was “Form I”.
